We go through 7 compounds from patent US8377974B2 (Millennium Pharmaceuticals, Inc., priority 2004, dated 2013).

A value given as a limit tells only on which side of the number the result lay.

A word on the IC50: it is the concentration that gives 50% inhibition. Higher therefore signals a need for much substance.

The target in this assay is T1, human plasma protein factor Xa (Homo sapiens, UniProt P00742).
T1 construct: measure proteolytic activity of the enzyme (factor Xa); purchased Haematologic Technologies (Essex Junction, Vt.); host or cells: human plasma
T1 sequence (P00742 235-488 limits assumed): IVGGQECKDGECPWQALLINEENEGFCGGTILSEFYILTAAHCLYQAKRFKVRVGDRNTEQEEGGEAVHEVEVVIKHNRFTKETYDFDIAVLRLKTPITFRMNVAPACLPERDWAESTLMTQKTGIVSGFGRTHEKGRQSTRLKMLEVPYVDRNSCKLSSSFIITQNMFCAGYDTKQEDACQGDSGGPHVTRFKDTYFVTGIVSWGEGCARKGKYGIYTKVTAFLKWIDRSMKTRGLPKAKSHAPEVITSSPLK
T1 sequence (P00742 41-179 partner limits assumed): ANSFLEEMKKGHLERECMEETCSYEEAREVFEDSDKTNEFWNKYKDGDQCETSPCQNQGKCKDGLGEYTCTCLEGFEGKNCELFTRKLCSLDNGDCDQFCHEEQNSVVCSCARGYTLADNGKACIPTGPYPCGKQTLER
Description: Factor Xa IC50 determination: cleavage of paranitroanilide substrate S-2765 in 96-well plates. The class given is biochemical. Conditions: fXa 1 nM, S-2765 100 μM, Tris buffered saline pH 7.4, room temperature. In a few lines: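 Human plasma factor Xa (1 nM) preincubated 5 min at room temperature with inhibitor (0.01 nM–10 μM final) in Tris-buffered saline pH 7.4 with 5 mM CaCl2, 0.1% BSA, 5% DMSO. S-2765 at 100 μM final; hydrolysis at 405 nm over 2 min. IC50 from 4-parameter fit of initial velocities.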
For the compound `C#CCN(C)C(=N)c1ccc(-c2nc(CNC(=O)c3ccc(Cl)s3)cs2)cc1` [Example 357, N-((2-(4-(N-Methyl-N-(prop-2-ynyl)carbamimidoyl)phenyl)thiazol-4-yl)methyl)-5-chlorothiophene-2-carboxamide], the IC50 was at least 500 nM.
In the case of `N=C(c1ccccn1)N1CCC(C2=NOC(CNC(=O)c3ccc(Cl)s3)C2)CC1` (stereo not shown) [Example 175, 5-Chloro-thiophene-2-carboxylic acid {3-[1-(imino-pyridin-2-yl-methyl)-piperidin-4-yl]-4,5-dihydro-isoxazol-5-ylmethyl}-amide] it was at least 500 nM; in that of `CN(C)C(=N)c1ccc(C2=NOC(C)(CNC(=O)c3ccc(Cl)s3)C2)cc1` (stereo not shown) [Example 57, 5-Chloro-thiophene-2-carboxylic acid {3-[4-(N,N-dimethyl-carbamimidoyl)-phenyl]-5-methyl-4,5-dihydro-isoxazol-5-ylmethyl}-amide], at most 100 nM.
In the case of `O=C(NCc1cc(C2CCN(Cc3ccccc3)CC2)no1)c1ccc(Cl)s1` [Example 178, 5-Chloro-thiophene-2-carboxylic acid [3-(1-benzyl-piperidin-4-yl)-isoxazol-5-ylmethyl]-amide] it was at least 500 nM; in that of `COc1ccc(-c2ccc(C3=NOC(CNC(=O)c4ccc(Cl)s4)C3)cc2)c(CO)c1` (stereo not shown) [Example 207, 5-Chloro-thiophene-2-carboxylic acid [3-(2′-hydroxymethyl-4′-methoxy-biphenyl-4-yl)-4,5-dihydro-isoxazol-5-ylmethyl]-amide], at least 500 nM; in that of `CN(C)C(=O)c1ccc(C2=NOC(CNC(=O)c3ccc(Cl)s3)C2)cc1` (stereo not shown) [Example 162, 5-Chloro-thiophene-2-carboxylic acid [3-(4-dimethylcarbamoyl-phenyl)-4,5-dihydro-isoxazol-5-ylmethyl]-amide], at most 100 nM.
To `N=C(c1ccc(-c2nc(CNC(=O)c3ccc(Cl)s3)cs2)cc1)N1CCCC1` [Example 352, 5-Chloro-N-((2-(4-(imino(pyrrolidin-1-yl)methyl)phenyl)thiazol-4-yl)methyl)thiophene-2-carboxamide] belongs at most 100 nM.
